From US11578077B2, “Spiro-oxazolones” (Hoffmann-La Roche Inc., priority 2013, dated 2023)

Target: human V1a receptor (Homo sapiens (Human), UniProt P37288)
Assay: human V1a receptor binding studies (3H-Vasopressin, SPA beads)
Details: membranes of HEK293 cells transiently transfected with human V1a receptor, Ki by Cheng-Prusoff
Protocol: The human V1a receptor was cloned by RT-PCR from total human liver RNA. The coding sequence was subcloned in an expression vector after sequencing to confirm the identity of the amplified sequence. […] Cell membranes were prepared from HEK293 cells transiently transfected with the expression vector and grown in 20 liter fermenters with the following protocol.
50 g of cells are re-suspended in 30 ml freshly prepared ice cold Lysis buffer ([…] HEPES. 1 mM EDTA, 10 mM MgCl2 adjusted to pH=7.4+complete cocktail of protease inhibitor (Roche Diagnostics)). Homogenized with Polytron for 1 min and sonicated on ice for 2×2 minutes at 80% intensity (Vibracell sonicator). The preparation is centrifuged 20 min at 500 g at 4° C., the pellet is discarded and the supernatant centrifuged 1 hour at 43'000 g at 4° C. (19'000 rpm). The pellet is re-suspended in 12.5 ml Lysis buffer+12.5 ml Sucrose 20% and homogenized using a Polytron for 1-2 min. The protein concentration is determined by the Bradford method and aliquots are stored at −80° C. until use. For binding studies 60 mg Yttrium silicate SPA beads (Amersham) are mixed with an aliquot of membrane in binding buffer (50 mM Tris, 120 mM NaCl, 5 mM KCl, 2 mM CaCl2, 10 mM MgCl) for 15 minutes with mixing. 50 μl of bead/membrane mixture is then added to each well of a 96 well plate, followed by […] of 4 nM 3H-Vasopressin (American Radiolabeled Chemicals). For total binding measurement 100 μl of binding buffer are added to the respective wells, for non-specific binding 100 μl of […] cold vasopressin and for compound testing 100 μl of a serial dilution of each compound in 2% DMSO. The plate is incubated 1 h at room temperature, centrifuged 1 min at 1000 g and counted on a Packard Top-Count. Non-specific binding counts are subtracted from each well and data is normalized to the maximum specific binding set at 100%. To calculate an IC 50 the curve is fitted using a non-linear regression model (XLfit) and the Ki is calculated using the Cheng-Prussoff equation.

Sequence of human V1a receptor (P37288 whole entry): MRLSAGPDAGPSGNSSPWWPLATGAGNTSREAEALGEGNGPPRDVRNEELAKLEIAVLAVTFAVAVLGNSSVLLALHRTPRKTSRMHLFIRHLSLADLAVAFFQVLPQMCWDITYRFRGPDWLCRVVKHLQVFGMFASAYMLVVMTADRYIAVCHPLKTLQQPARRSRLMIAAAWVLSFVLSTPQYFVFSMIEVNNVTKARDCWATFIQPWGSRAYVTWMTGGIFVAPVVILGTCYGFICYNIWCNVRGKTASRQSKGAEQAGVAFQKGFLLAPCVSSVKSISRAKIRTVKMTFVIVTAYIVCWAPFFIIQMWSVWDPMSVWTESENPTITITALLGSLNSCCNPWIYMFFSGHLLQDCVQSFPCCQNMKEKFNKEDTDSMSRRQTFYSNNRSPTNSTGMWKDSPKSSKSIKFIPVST

SMILES	pKi hV1a
O=C1OC2(CCN(C3=NC(=O)C4(Cc5ccccc5C4)O3)CC2)c2cnc(Cl)cc21 [Example 54, 6-chloro-1′-(4′-oxo-1,3-dihydro-4′H-spiro[indene-2,5′-[1,3]oxazol]-2′-yl)-1H-spiro[furo[3,4-c]pyridine-3,4′-piperidin]-1-one]	7.4
Cc1cc2c(cn1)CC1(C2)OC(N2CCC3(CC2)OCc2ccccc23)=NC1=O (stereo not shown) [Example 58, 3-methyl-2′-(1′H,3H-spiro[2-benzofuran-1,4′-piperidin]-1′-yl)-5,7-dihydro-4′H-spiro[cyclopenta[c]pyridine-6,5′-[1,3]oxazol]-4′-one]	7.7
Cc1cc2c(cc1C)CC1(C2)OC(N2CCC3(CC2)OC(=O)c2ccccc23)=NC1=O [Example 26, 1′-(5,6-dimethyl-4′-oxo-1,3-dihydro-4′H-spiro[indene-2,5′-[1,3]oxazol)-2′-yl)-3H-spiro[2-benzofuran-1,4′-piperidin]-3-one]	6.4
CC1(C)OC2(CCN(C3=NC(=O)C4(Cc5ccccc5C4)O3)CC2)c2ccccc21 [Example 3, 2′-(3,3-dimethyl-1′H,3H-spiro[2-benzofuran-1,4′-piperidin]-1′-yl)-1,3-dihydro-4′H-spiro[indene-2,5′-[1,3]oxazol]-4′-one]	9.3
O=C1OC2(CCN(C3=NC(=O)C4(CCc5ccccc5C4)O3)CC2)c2ccccc21 (stereo not shown) [Example 65, 1′-(4′-oxo-3,4-dihydro-1H,4′H-spiro[naphthalene-2,5′-[1,3]oxazol]-2′-yl)-1′H,3H-spiro[2-benzofuran-1,4′-piperidin]-3-one]	8.8
O=C1N=C(N2CCC3(CC2)OCc2cccnc23)OC12Cc1ccccc1C2 [Example 36, 2′-(1′H,5H-spiro[furo[3,4-b]pyridine-7,4′-piperidin]-1′-yl)-1,3-dihydro-4′H-spiro[indene-2,5′-[1,3]oxazol]-4′-one]	8.6
CC1(C)OC2(CCN(C3=NC(=O)C4(Cc5ccccc5C4)O3)CC2)c2ncccc21 [Example 38, 2′-(5,5-dimethyl-1′H,5H-spiro[furo[3,4-b]pyridine-7,4′-piperidin]-1′-yl)-1,3-dihydro-4′H-spiro[indene-2,5′-[1,3]oxazol]-4′-one]	9.2
O=C1OC2(CCN(C3=NC(=O)C4(Cc5ccccc5C4)O3)CC2)c2cc(O)c(O)cc21 [Example 13, 5,6-dihydroxy-1′-(4′-oxo-1,3-dihydro-4′H-spiro[indene-2,5′-[1,3]oxazol]-2′-yl)-3H-spiro[2-benzofuran-1,4′-piperidin]-3-one]	8.2
O=C1OC2(CCN(C3=NC(=O)C4(Cc5ccccc5C4)O3)CC2)c2ccc(Br)cc21 [Example 18, 5-bromo-1′-(4′-oxo-1,3-dihydro-4′H-spiro[indene-2,5′-[1,3]oxazol]-2′-yl)-3H-spiro[2-benzofuran-1,4′-piperidin]-3-one]	8.4
Cc1ccc2c(c1)C(=O)OC21CCN(C2=NC(=O)C3(Cc4ccccc4C3)O2)CC1 [Example 6, 5-methyl-1′-(4′-oxo-1,3-dihydro-4′H-spiro[indene-2,5′-[1,3]oxazol]-2′-yl)-3H-spiro[2-benzofuran-1,4′-piperidin]-3-one]	8.8
COc1cc2c(cc1OC)CC1(C2)OC(N2CCC3(CC2)OC(=O)c2ccccc23)=NC1=O [Example 32, 1′-(5,6-dimethoxy-4′-oxo-1,3-dihydro-4′H-spiro[indene-2,5′-[1,3]oxazol)-2′-yl)-3H-spiro[2-benzofuran-1,4′-piperidin]-3-one]	6.4
Cc1ccc2c(n1)C1(CCN(C3=NC(=O)C4(Cc5ccccc5C4)O3)CC1)OC2=O [Example 43, 2-methyl-1′-(4′-oxo-1,3-dihydro-4′H-spiro[indene-2,5′-[1,3]oxazol]-2′-yl)-5H-spiro[furo[3,4-b]pyridine-7,4′-piperidin]-5-one]	8.3
C[Si](C)(C)c1ccc2c(c1)CC1(C2)OC(N2CCC3(CC2)OCc2ccccc23)=NC1=O (stereo not shown) [Example 29, 2′-(1′H,3H-spiro[2-benzofuran-1,4′-piperidin]-1′-yl)-5-(trimethylsilyl)-1,3-dihydro-4′H-spiro[indene-2,5′-[1,3]oxazol]-4′-one]	6.2
O=C1OC2(CCN(C3=NC(=O)C4(Cc5ccccc5C4)O3)CC2)c2cccc(F)c21 [Example 14, 4-fluoro-1′-(4′-oxo-1,3-dihydro-4′H-spiro[indene-2,5′-[1,3]oxazol]-2′-yl)-3H-spiro[2-benzofuran-1,4′-piperidin]-3-one]	8.5
O=C1N=C(N2CCC3(CC2)OCc2ccccc23)OC12Cc1ccccc1C2 [Example 1, 2′-(1′H,3H-spiro[2-benzofuran-1,4′-piperidin]-1′-yl)-1,3-dihydro-4′H-spiro[indene-2,5′-[1,3]oxazol]-4′-one]	9.5
COc1ccc2c(c1)C1(CCN(C3=NC(=O)C4(Cc5ccccc5C4)O3)CC1)OC2=O [Example 10, 6-methoxy-1′-(4′-oxo-1,3-dihydro-4′H-spiro[indene-2,5′-[1,3]oxazol]-2′-yl)-3H-spiro[2-benzofuran-1,4′-piperidin]-3-one]	8.6
Cc1cnc2c(c1)C1(CCN(C3=NC(=O)C4(Cc5ccccc5C4)O3)CC1)OC2=O [Example 53, 3-methyl-1′-(4′-oxo-1,3-dihydro-4′H-spiro[indene-2,5′-[1,3]oxazol]-2′-yl)-7H-spiro[furo[3,4-b]pyridine-5,4′-piperidin]-7-one]	7.4

Next, values leading:

pKi hV1a	SMILES
7.5	COc1cc2c(cc1OC)C1(CCN(C3=NC(=O)C4(Cc5ccccc5C4)O3)CC1)OC2=O [Example 12, 5,6-dimethoxy-1′-(4′-oxo-1,3-dihydro-4′H-spiro[indene-2,5′-[1,3]oxazol)-2′-yl)-3H-spiro[2-benzofuran-1,4′-piperidin]-3-one]
9.1	CC1(C)OC2(CCN(C3=NC(=O)C4(Cc5ccccc5C4)O3)CC2)c2cccnc21 [Example 39, 2′-(7,7-dimethyl-1′H,7H-spiro[furo[3,4-b]pyridine-5,4′-piperidin]-1′-yl)-1,3-dihydro-4′H-spiro[indene-2,5′-[1,3]oxazol]-4′-one]
8.4	O=C1OC2(CCN(C3=NC(=O)C4(Cc5ccc(O)cc5C4)O3)CC2)c2ccccc21 (stereo not shown) [Example 28, 1′-(5-hydroxy-4′-oxo-1,3-dihydro-4′H-spiro[indene-2,5′-[1,3]oxazol]-2′-yl)-3H-spiro[2-benzofuran-1,4′-piperidin]-3-one]
7.7	O=C1N=C(N2CCC3(CC2)OCc2ccccc23)OC12Cc1cnc(C(F)F)cc1C2 (stereo not shown) [Example 60, 3-(difluoromethyl)-2′-(1′H,3H-spiro[2-benzofuran-1,4′-piperidin]-1′-yl)-5,7-dihydro-4′H-spiro[cyclopenta[c]pyridine-6,5′-[1,3]oxazol]-4′-one]
9.0	O=C1N=C(N2CCC3(CC2)OCc2ccccc23)OC12Cc1ccc(F)cc1C2 (stereo not shown) [Example 30, 5-fluoro-2′-(1′H,3H-spiro[2-benzofuran-1,4′-piperidin]-1′-yl)-1,3-dihydro-4′H-spiro[indene-2,5′-[1,3]oxazol]-4′-one]
8.3	Cc1cnc2c(c1)C1(CCN(C3=NC(=O)C4(Cc5ccccc5C4)O3)CC1)OC2 [Example 52, 2′-(3-methyl-1′H,7H-spiro[furo[3,4-b]pyridine-5,4′-piperidin]-1′-yl)-1,3-dihydro-4′H-spiro[indene-2,5′-[1,3]oxazol]-4′-one]
6.6	O=C1N=C(N2CCC3(CC2)OCc2ccccc23)O[C@@]12CCc1ccccc12 [Example 20, (+)-2′-(1′H,3H-spiro[2-benzofuran-1,4′-piperidin]-1′-yl)-2,3-dihydro-4′H-spiro[indene-1,5′-[1,3]oxazol]-4′-one]
7.9	Cc1ccc2c(n1)COC21CCN(C2=NC(=O)C3(Cc4ccccc4C3)O2)CC1 [Example 48, 2′-(2-methyl-1′H,7H-spiro[furo[3,4-b]pyridine-5,4′-piperidin]-1′-yl)-1,3-dihydro-4′H-spiro[indene-2,5′-[1,3]oxazol]-4′-one]
8.9	CC1(C)OC2(CCN(C3=NC(=O)C4(Cc5ccc(O)cc5C4)O3)CC2)c2cccnc21 (stereo not shown) [Example 41, 2′-(7,7-dimethyl-1′H,7H-spiro[furo[3,4-b]pyridine-5,4′-piperidin]-1′-yl)-5-hydroxy-1,3-dihydro-4′H-spiro[indene-2,5′-[1,3]oxazol]-4′-one]
8.9	O=C1OC2(CCN(C3=NC(=O)C4(Cc5ccccc5C4)O3)CC2)c2ccc(F)cc21 [Example 15, 5-fluoro-1′-(4′-oxo-1,3-dihydro-4′H-spiro[indene-2,5′-[1,3]oxazol]-2′-yl)-3H-spiro[2-benzofuran-1,4′-piperidin]-3-one]
8.2	O=C1N=C(N2CCC3(CC2)OCc2ccccc23)OC12Cc1cccnc1C2 (stereo not shown) [Example 56, 2′-(1′H,3H-spiro[2-benzofuran-1,4′-piperidin]-1′-yl)-5,7-dihydro-4′H-spiro[cyclopenta[b]pyridine-6,5′-[1,3]oxazol]-4′-one]
